Assay results from US11458153B2, “Drug delivery composition comprising a self-assembled gelator” (The Brigham and Women's Hospital, Inc., priority 2008, dated 2022).
Entries after “also recorded” stand apart in the source; their conditions may differ.

Legend:
[1] = test system: mesenchymal stem cells (MSCs); assay: MSC adipogenic differentiation, Oil Red O staining; format: cell-based, human; conditions: 250 μM, 23 days of induction
Description: (§1) Unlike typical fibroblast cell lines used for toxicity screening, cultured mesenchymal stem cells are highly sensitive to the presence of soluble factors and can often loose their capacity for multi-lineage differentiation or differentiate into non-desired lineages depending on the culture conditions. To examine the impact of the acetaminophen amphiphilic prodrugs on multi-lineage differentiation of MSCs, cells were treated with adipogenic and osteogenic induction media in presence of amphiphiles followed by respective colorimetric histological staining.
Adipogenic Differentiation. MSCs were seeded in the wells of 24 well plates, and were culture in MSC expansion media until they reach 90% confluence (note: in control samples there was no amphiphile present, whereas in experimental samples 250 μM of Apn-based amphiphile was present). Adipogenic differentiation was induced by culturing the cells for 23 days in adipogenic induction media (from Lonza—MSCs Adipogenic Single Quote kit containing h-Insulin (recombinant), L-Glutamine, Dexamethasone, Indomethacin, IBMX (3-isobuty-1-methyl-xanthine), Pen/Strep) and adipogenic maintenance media (from Lonza—MSCs Adipogenic Single Quote kit containing h-Insulin (recombinant), L-Glutamine, Pen/Strep). […] Adipogenesis was evaluated by Oil Red O staining. Following aspiration of the media, cells were washed once with PBS, and fixed in PBS with 3.7% formaldehyde for 30 min at room temperature. Following fixation cells were rinsed with distilled water for a few minutes, and incubated with isopropanol containing an Oil Red O working solution (prepared by diluting 30 mL of 0.5% isopropanol/Oil Red O solution with 20 mL of distilled water). After 45 minutes culture well were rinsed twice with distilled water and 1 mL of hematoxylin was added to each well for 1 minute followed by aspiration and washing with distilled water. The wells were viewed using an inverted phase contrast microscope.

[2] = Gelation studies with Apn-based prodrug gelators in water and organic solvents; format: physicochemical; parameters: key to Gelation ability: G = gel; P = precipitate; S = soluble; I = insoluble
Text: Gelation Studies with Prodrug-Based Gelators. Gelation abilities of Apn based amphiphilic prodrugs have been investigated thoroughly in a wide range of solvents. For detailed gelation results, see Table 1, below). Typically, the required amount of gelator was placed in a glass vial and with an appropriate solvent. […] The resulting solution was slowly cooled to room temperature and gelation was visually observed. […] Despite of prolonged heating Apn-11-CH3 was not soluble in water. […] In addition, Apn-7-COOH is soluble in basic solutions (pH is more than 8).
All gels were opaque in nature and stable for several weeks.
Preparation of Gels. Typically, gelator (0.1-5 mg) and required solvent (0.1-1 mL) were placed into a 2 mL scintillation vial, which was then sealed with a screw cap. The vial was heated with shaking until the solid was completely dissolved.

[3] = molecular target: T1, lipase (Lipolase 100L, Type EX) (Thermomyces lanuginosus, UniProt O59952); assay: Enzyme-triggered hydrogel degradation and drug release; format: in vitro ADME
T1 construct: purchased Novozymes through Brenntag North America Lipolase 100L, Type EX
T1 sequence (O59952 23-291): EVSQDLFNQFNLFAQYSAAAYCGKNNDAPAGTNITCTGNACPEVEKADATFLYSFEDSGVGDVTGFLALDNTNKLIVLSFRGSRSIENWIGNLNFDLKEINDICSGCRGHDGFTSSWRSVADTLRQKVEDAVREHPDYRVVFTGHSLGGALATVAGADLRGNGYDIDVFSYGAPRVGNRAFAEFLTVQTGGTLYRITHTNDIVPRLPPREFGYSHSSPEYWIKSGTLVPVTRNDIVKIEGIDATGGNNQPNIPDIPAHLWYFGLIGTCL
Description: Encapsulation and release of curcumin was previously studied by the Ultra-Violet absorbance spectroscopy (λmax at 424 nm). Absorbance spectrum of modified Apn-7-COOH was similar to that of Apn (FIG. 6B). In this instance, enzyme-triggered single and multiple drug delivery has been carried out using two sets of hydrogel samples, i.e., hydrogels of Apn-7-COOH and Apn-8-Apn with and without curcumin. In the first set, lipase (Lipolase 100L, Type EX, lipase units 100 KLU/g) was added to the preformed hydrogel of Apn-7-COOH (2 wt %) and kept it at 37° C. which is lower than gel melting temperature. It was anticipated that lipase (esterase) would hydrolyze the ester bond of prodrug-based gelator (Apn-7-COOH) to release acetaminophen and dicarboxylic acid as the hydrogel degrades. As expected, after 48 hours the gel completely degraded and became a clear solution.
To test this further, and examine multiple (two) drugs delivery (FIGS. 6A-6E), curcumin was encapsulated in the hydrogel of Apn-7-COOH (2 wt %) and to that lipase was added and kept it at 37° C. Absorbance spectra were recorded on aliquots which were collected (after the addition of enzyme to the hydrogel) at regular intervals (FIG. 6C). […] The concentration of the enzyme used in these in vitro experiments is higher than physiological concentration of esterases (for example, physiological concentration of cholesterol esterase is 7 U/ml).
Increasing either concentration of enzyme or incubation temperature to 45° C. doubles the drug release rate, which was correlating with previous findings.
To analyze the gel degradation mechanism, another prodrug Apn-5-ether-COOH was synthesized (FIG. 2), where hydrocarbon chain (which is bearing terminal carboxylic acid) was connected to the acetaminophen through an ether bond (C—O—C) to prevent the esterolytic cleavage by lipase.

[4] = test system: mesenchymal stem cells (MSCs); assay: MSC osteogenic differentiation, alkaline phosphatase staining; format: cell-based, human; conditions: 250 μM, 23 days
Description: as §1
Osteogenic Differentiation. MSCs were seeded in the wells of 24 well plates, and were culture in MSC expansion media until they reach 90% confluence (note: in control samples there was no amphiphile present, whereas in experimental samples 250 μM of Apn-based amphiphile was present). Osteogenic differentiation was induced by culturing the cells for 23 days in osteogenic induction media (from Lonza—MSCs Osteogenic Single Quote kit) containing dexamethasone, β-glycerophosphate, L-ascorbic acid-2-phosphate, and α-MEM. The media in both groups was changed every 3 days (note: each time while changing the media, 250 μM of Apn-based amphiphiles were added to maintain constant concentration). Osteogenesis was evaluated by cell membrane associated alkaline phosphatase activity. Alkaline phosphatase activity was examined after 23 days by carefully aspirating the media and washing the cells with PBS. The cells were fixed with 3.7% formaldehyde solution for 15 min at room temperature followed by rinsing with distilled water. 0.06% Red Violet LB salt solution in Tris HCl was added with distilled water containing DMF and Naphthol AS MX-PO4. The plates were incubated for 45 minutes at room temperature and then the wells were rinsed 3 times with distilled water and imaged under with inverted phase contrast microscope.

## CC(=O)Nc1ccc(OC(=O)CCCCCCC(=O)O)cc1 [Apn-7-COOH]
[1]
  adipogenic differentiation, Oil Red O (ORO) staining: robust capacity; also recorded: equally stained for ORO
[2]; pH is more than 8
  solubility in basic solutions: soluble
[2]; solvent chloroform
  Gelation ability: S
[2]; solvent ethanol
  Gelation ability: S
[2]; solvent ethyl acetate
  Gelation ability: I
[2]; solvent isopropanol
  Gelation ability: I
[2]; solvent methanol
  Gelation ability: S
[2]; solvent t-butanol
  Gelation ability: I
[2]; solvent water
  Gelation ability: G
  minimum gelation concentration: 0.4 wt/v %
[2]; water / aqueous solutions
  gelation in water (in words): forms excellent gels
[3]; curcumin released from degradation of hydrogel
  time after which absorbance of released curcumin did not increase: 24 h
[3]; curcumin-encapsulated hydrogel 2 wt %, lipase, 37° C.
  time of first aliquots showing curcumin absorption maxima (425 nm): 4 h
[3]; curcumin-encapsulated hydrogel 2 wt %, lipase, 37° C., absorbance maxima vs time
  burst release of curcumin: absence of burst release
[3]; hydrogel 2 wt %, lipase, 37° C., 48 hours
  products found by thin-layer chromatography after gel degradation: acetaminophen and α,ω-dicarboxylicacid were generated
[3]; preformed hydrogel 2 wt %, lipase added, 37° C.
  time after which the gel completely degraded: 48 h
[4]
  osteogenic differentiation, alkaline phosphatase (ALP) staining: robust capacity; also recorded: equally stained for ALP
